This data set relates to rodent lifetime carcinogenesis bioassay, tumor incidence TD50. Put plainly: chronic cancer bioassays in animals – CPDB, compiled studies (AID 1745844).

“And” between values parts separate entries of the source, which are not always exact repeats. Identical values can stand only once. The source made the active and inactive calls. No rule for the calls is given here.

In the case of `COc1ccc2nc(S(=O)Cc3ncc(C)c(OC)c3C)[nH]c2c1` (stereo not drawn), the TD50 reads like this: (rat, strain Sprague-Dawley, females, by gavage, site: gastric mucosa, lesion: carcinoid tumor, malignant, dosed 104 weeks, study length 104 weeks) 63 mg/kg/day; (rat, strain Sprague-Dawley, males, by gavage, site: gastric mucosa, lesion: carcinoid tumor, malignant, dosed 104 weeks, study length 104 weeks) 1120 mg/kg/day.
For the compound `NC(=O)Cc1c([O-])on[n+]1Cc1ccccc1`, the TD50 was 10.2 mg/kg/day (mouse, strain DDD, females, in drinking water, site: liver, lesion: hepatocellular adenoma, dosed 52 weeks, study length 52 weeks); 22.6 mg/kg/day (mouse, strain DDD, females, in drinking water, site: liver, lesion: hepatocellular carcinoma, dosed 52 weeks, study length 52 weeks); 10.2 mg/kg/day (mouse, strain DDD, females, in drinking water, site: liver, lesion: several types, types named in the paper, dosed 52 weeks, study length 52 weeks); 31.4 mg/kg/day (mouse, strain DDD, females, in drinking water, site: lung, lesion: adenoma, dosed 52 weeks, study length 52 weeks); 4.24 mg/kg/day (rat, strain Donryu, males, in drinking water, site: liver, lesion: hepatocellular carcinoma, dosed 41 weeks, study length 91 weeks); 15.1 mg/kg/day (rat, strain Donryu, males, in drinking water, site: liver, lesion: neoplastic nodule, dosed 41 weeks, study length 91 weeks). In addition, for the setting “rat, strain Donryu, males, in drinking water, site: liver, lesion: several types, types named in the paper, dosed 41 weeks, study length 91 weeks”, the TD50 was 4.24 mg/kg/day. Also, under “rat, strain Donryu, males, in feed, site: liver, lesion: one or several types, types not named, dosed 104 weeks, study length 104 weeks”, the carcinogen call is “negative (inactive)”.
With `Oc1ccc(O)cc1`, the TD50 by setting is: (mouse, strain B6C3F1, females, by gavage, site: liver, lesion: hepatocellular adenoma + hepatocellular carcinoma + neoplastic nodule, dosed 103 weeks, study length 105 weeks) 122 mg/kg/day; (mouse, strain B6C3F1, females, by gavage, site: liver, lesion: hepatocellular adenoma + hepatocellular carcinoma, dosed 103 weeks, study length 105 weeks) 122 mg/kg/day; (mouse, strain B6C3F1, females, by gavage, site: liver, lesion: hepatocellular adenoma, dosed 103 weeks, study length 105 weeks) 65 mg/kg/day; (mouse, strain B6C3F1, females, by gavage, site: lung, lesion: alveolar/bronchiolar adenoma + alveolar/bronchiolar carcinoma, dosed 103 weeks, study length 105 weeks) 19200 mg/kg/day; (mouse, strain B6C3F1, females, in feed, site: liver, lesion: hepatocellular adenoma, dosed 96 weeks, study length 96 weeks) 17900 mg/kg/day; (mouse, strain B6C3F1, males, by gavage, site: any site (literature study), lesion: several types, types named in the paper, dosed 103 weeks, study length 104 weeks) 497 mg/kg/day (inactive). Moreover, the TD50 by setting is: (mouse, strain B6C3F1, males, by gavage, site: liver, lesion: hepatocellular adenoma + hepatocellular carcinoma + neoplastic nodule, dosed 103 weeks, study length 104 weeks) 383 mg/kg/day; (mouse, strain B6C3F1, males, in feed, site: kidney, lesion: adenoma, dosed 96 weeks, study length 96 weeks) 5320 mg/kg/day; (mouse, strain B6C3F1, males, in feed, site: liver, lesion: hepatocellular adenoma, dosed 96 weeks, study length 96 weeks) 1450 mg/kg/day; (rat, strain F344/DuCrj, females, in feed, site: liver, lesion: hepatocellular carcinoma, dosed 104 weeks, study length 104 weeks) 8080 mg/kg/day; (rat, strain F344/DuCrj, males, in feed, site: kidney, lesion: adenoma, dosed 104 weeks, study length 104 weeks) 349 mg/kg/day; (rat, strain Fischer 344, females, by gavage, site: all sites, lesion: mononuclear-cell leukemia, dosed 103 weeks, study length 104 weeks) 55.8 mg/kg/day. Moreover, the TD50 is 51.6 mg/kg/day (rat, strain Fischer 344, females, by gavage, site: any site (literature study), lesion: several types, types named in the paper, dosed 103 weeks, study length 104 weeks); 48.2 mg/kg/day (rat, strain Fischer 344, males, by gavage, site: adrenal medulla, lesion: pheochromocytoma benign, bilateral + pheochromocytoma, benign, dosed 103 weeks, study length 104 weeks); 40.4 mg/kg/day (rat, strain Fischer 344, males, by gavage, site: adrenal medulla, lesion: pheochromocytoma benign, bilateral + pheochromocytoma, malignant + pheochromocytoma, benign, dosed 103 weeks, study length 104 weeks); 41.8 mg/kg/day (rat, strain Fischer 344, males, by gavage, site: any site (literature study), lesion: several types, types named in the paper, dosed 103 weeks, study length 104 weeks); 64.7 mg/kg/day (rat, strain Fischer 344, males, by gavage, site: kidney, lesion: tubule adenoma, dosed 103 weeks, study length 104 weeks); 5710 mg/kg/day (rat, strain Fischer 344, males, by gavage, site: liver, lesion: hepatocellular adenoma + hepatocellular carcinoma + neoplastic nodule, dosed 103 weeks, study length 104 weeks).
`CCOP(=O)(CC1CO1)OCC` (stereo not drawn) displayed a TD50 (mouse, strain Ha/ICR, females, i.p., site: lung, lesion: papillary tumor, dosed 64 weeks, study length 64 weeks) of 12.4 mg/kg/day.
`CCCCN(CC)C(=O)SCCC`: the TD50 (mouse, strain B6AKF1, females, oral dosing, site: any site (literature study), lesion: several types, types named in the paper, dosed 76 weeks, study length 76 weeks) was 219 mg/kg/day (inactive); the TD50 (mouse, strain B6AKF1, females, oral dosing, site: lung, lesion: adenoma, dosed 76 weeks, study length 76 weeks) was 113 mg/kg/day (inactive); the TD50 (mouse, strain B6C3F1, females, oral dosing, site: any site (literature study), lesion: several types, types named in the paper, dosed 76 weeks, study length 76 weeks) is 251 mg/kg/day (inactive); the TD50 (mouse, strain B6C3F1, females, oral dosing, site: lung, lesion: adenoma, dosed 76 weeks, study length 76 weeks) was 267 mg/kg/day (inactive). The carcinogen call (mouse, strain B6AKF1, females, oral dosing, site: liver, lesion: hepatoma, dosed 76 weeks, study length 76 weeks) was “negative (inactive)”; the carcinogen call (mouse, strain B6AKF1, males, oral dosing, site: any site (literature study), lesion: several types, types named in the paper, dosed 76 weeks, study length 76 weeks) was “negative (inactive)”; the carcinogen call (mouse, strain B6AKF1, males, oral dosing, site: liver, lesion: hepatoma, dosed 76 weeks, study length 76 weeks) is “negative (inactive)”; the carcinogen call (mouse, strain B6AKF1, males, oral dosing, site: lung, lesion: adenoma, dosed 76 weeks, study length 76 weeks) is “negative (inactive)”; the carcinogen call (mouse, strain B6C3F1, females, oral dosing, site: liver, lesion: hepatoma, dosed 76 weeks, study length 76 weeks) was “negative (inactive)”; the carcinogen call (mouse, strain B6C3F1, males, oral dosing, site: any site (literature study), lesion: several types, types named in the paper, dosed 76 weeks, study length 76 weeks) is “negative (inactive)”. Also, the carcinogen call reads like this: (mouse, strain B6C3F1, males, oral dosing, site: liver, lesion: hepatoma, dosed 76 weeks, study length 76 weeks) “negative (inactive)”; (mouse, strain B6C3F1, males, oral dosing, site: lung, lesion: adenoma, dosed 76 weeks, study length 76 weeks) “negative (inactive)”.
For the compound `CC(C)CCC[C@@H](C)[C@H]1CC[C@H]2[C@@H]3CC=C4C[C@@H](OC(=O)Cc5ccc(N(CCCl)CCCl)cc5)CC[C@]4(C)[C@H]3CC[C@]12C`, the TD50 was 0.211 mg/kg/day (mouse, strain B6C3F1, females, by gavage, site: all sites + lung + myocardium, lesion: leukemia + lymphoma + alveolar/bronchiolar adenoma + alveolar/bronchiolar carcinoma + sarcoma, NOS, dosed 70 weeks, study length 83 weeks); 1.52 mg/kg/day (mouse, strain B6C3F1, females, by gavage, site: all sites, lesion: hemangiosarcoma, dosed 70 weeks, study length 83 weeks); 2.07 mg/kg/day (mouse, strain B6C3F1, females, by gavage, site: all sites, lesion: leukemia + lymphoma, dosed 70 weeks, study length 82 weeks); 0.652 mg/kg/day (mouse, strain B6C3F1, females, by gavage, site: all sites, lesion: leukemia + lymphoma, dosed 70 weeks, study length 83 weeks); 0.183 mg/kg/day (mouse, strain B6C3F1, females, by gavage, site: any site (literature study), lesion: several types, types named in the paper, dosed 70 weeks, study length 83 weeks); 0.416 mg/kg/day (mouse, strain B6C3F1, females, by gavage, site: lung, lesion: alveolar/bronchiolar adenoma + alveolar/bronchiolar carcinoma, dosed 70 weeks, study length 83 weeks). Besides, the TD50 (mouse, strain B6C3F1, females, by gavage, site: myocardium, lesion: sarcoma, NOS, dosed 70 weeks, study length 83 weeks) is 0.951 mg/kg/day; the TD50 (mouse, strain B6C3F1, females, by gavage, site: ovary, lesion: tubular adenoma, dosed 70 weeks, study length 83 weeks) is 0.912 mg/kg/day; the TD50 (mouse, strain B6C3F1, males, by gavage, site: all sites + lung + myocardium, lesion: leukemia + lymphoma + alveolar/bronchiolar adenoma + alveolar/bronchiolar carcinoma + sarcoma, NOS, dosed 64 weeks, study length 81 weeks) is 0.757 mg/kg/day; the TD50 (mouse, strain B6C3F1, males, by gavage, site: all sites, lesion: hemangiosarcoma, dosed 64 weeks, study length 81 weeks) is 6.15 mg/kg/day; the TD50 (mouse, strain B6C3F1, males, by gavage, site: all sites, lesion: leukemia + lymphoma, dosed 64 weeks, study length 81 weeks) is 2.13 mg/kg/day and 1.89 mg/kg/day; the TD50 (mouse, strain B6C3F1, males, by gavage, site: any site (literature study), lesion: several types, types named in the paper, dosed 64 weeks, study length 81 weeks) was 0.728 mg/kg/day. The TD50 was 32.9 mg/kg/day (mouse, strain B6C3F1, males, by gavage, site: liver, lesion: hepatocellular adenoma + hepatocellular carcinoma + neoplastic nodule, dosed 64 weeks, study length 81 weeks); 1.19 mg/kg/day (mouse, strain B6C3F1, males, by gavage, site: lung, lesion: alveolar/bronchiolar adenoma + alveolar/bronchiolar carcinoma, dosed 64 weeks, study length 81 weeks); 2.05 mg/kg/day (mouse, strain B6C3F1, males, by gavage, site: lung, lesion: alveolar/bronchiolar carcinoma, dosed 64 weeks, study length 81 weeks); 3.87 mg/kg/day and 6.28 mg/kg/day (mouse, strain B6C3F1, males, by gavage, site: myocardium, lesion: sarcoma, NOS, dosed 64 weeks, study length 81 weeks); 0.271 mg/kg/day (rat, strain Sprague-Dawley, females, by gavage, site: any site (literature study), lesion: several types, types named in the paper, dosed 52 weeks, study length 85 weeks); 0.523 mg/kg/day (rat, strain Sprague-Dawley, females, by gavage, site: mammary gland, lesion: adenocarcinoma, NOS, dosed 52 weeks, study length 85 weeks). Besides, the TD50 is 2.73 mg/kg/day (inactive) (rat, strain Sprague-Dawley, males, by gavage, site: all sites, lesion: leukemia + lymphoma, dosed 52 weeks, study length 84 weeks) and 0.481 mg/kg/day (inactive) (rat, strain Sprague-Dawley, males, by gavage, site: any site (literature study), lesion: several types, types named in the paper, dosed 52 weeks, study length 84 weeks).
As for `CCCCCCCC/C=C\CCCCCCCC(=O)O`, the carcinogen call reads like this: (rat, strain F344/DuCrj, females, in drinking water, site: any site (literature study), lesion: several types, types named in the paper, dosed 108 weeks, study length 108 weeks) “negative (inactive)”; (rat, strain F344/DuCrj, females, in drinking water, site: liver, lesion: hyperplastic nodule, dosed 108 weeks, study length 108 weeks) “negative (inactive)”; (rat, strain F344/DuCrj, males, in drinking water, site: any site (literature study), lesion: several types, types named in the paper, dosed 108 weeks, study length 108 weeks) “negative (inactive)”. The TD50 is 29100 mg/kg/day (inactive) (rat, strain F344/DuCrj, males, in drinking water, site: liver, lesion: hyperplastic nodule, dosed 108 weeks, study length 108 weeks); 39300 mg/kg/day (inactive) (rat, strain F344/DuCrj, males, in drinking water, site: liver, lesion: several types, types named in the paper, dosed 108 weeks, study length 108 weeks); 12600 mg/kg/day (inactive) (rat, strain F344/DuCrj, males, in drinking water, site: pancreas, lesion: insuloma, dosed 108 weeks, study length 108 weeks); 10100 mg/kg/day (inactive) (rat, strain F344/DuCrj, males, in drinking water, site: pancreas, lesion: several types, types named in the paper, dosed 108 weeks, study length 108 weeks).

A word on the TD50: it is the 50% point of the dose-response relation for the toxic effect studied.

The values are drawn from PubChem BioAssay AID1745844 (Carcinogenic Potency Database (CPDB), 2022).
